Experimental findings from ChEMBL document CHEMBL5465560, “Selectivity Literature for EUbOPEN Chemogenomic Library” (2024) are described below.

The target of test [1] is Cyclin-dependent kinase 2/cyclin A (Homo sapiens) (UniProt P24941+P20248+P78396). Kind of test: Selectivity interaction (Kinase panel (Z-LYTE Assay)) EUB0001632a CDK2. It counts as protein-complex assay. The conditions noted are these: at 10 µM.
Test [2] deals with T1, Mitogen-activated protein kinase kinase kinase 13 (Homo sapiens) (UniProt O43283).
T1 sequence (whole entry): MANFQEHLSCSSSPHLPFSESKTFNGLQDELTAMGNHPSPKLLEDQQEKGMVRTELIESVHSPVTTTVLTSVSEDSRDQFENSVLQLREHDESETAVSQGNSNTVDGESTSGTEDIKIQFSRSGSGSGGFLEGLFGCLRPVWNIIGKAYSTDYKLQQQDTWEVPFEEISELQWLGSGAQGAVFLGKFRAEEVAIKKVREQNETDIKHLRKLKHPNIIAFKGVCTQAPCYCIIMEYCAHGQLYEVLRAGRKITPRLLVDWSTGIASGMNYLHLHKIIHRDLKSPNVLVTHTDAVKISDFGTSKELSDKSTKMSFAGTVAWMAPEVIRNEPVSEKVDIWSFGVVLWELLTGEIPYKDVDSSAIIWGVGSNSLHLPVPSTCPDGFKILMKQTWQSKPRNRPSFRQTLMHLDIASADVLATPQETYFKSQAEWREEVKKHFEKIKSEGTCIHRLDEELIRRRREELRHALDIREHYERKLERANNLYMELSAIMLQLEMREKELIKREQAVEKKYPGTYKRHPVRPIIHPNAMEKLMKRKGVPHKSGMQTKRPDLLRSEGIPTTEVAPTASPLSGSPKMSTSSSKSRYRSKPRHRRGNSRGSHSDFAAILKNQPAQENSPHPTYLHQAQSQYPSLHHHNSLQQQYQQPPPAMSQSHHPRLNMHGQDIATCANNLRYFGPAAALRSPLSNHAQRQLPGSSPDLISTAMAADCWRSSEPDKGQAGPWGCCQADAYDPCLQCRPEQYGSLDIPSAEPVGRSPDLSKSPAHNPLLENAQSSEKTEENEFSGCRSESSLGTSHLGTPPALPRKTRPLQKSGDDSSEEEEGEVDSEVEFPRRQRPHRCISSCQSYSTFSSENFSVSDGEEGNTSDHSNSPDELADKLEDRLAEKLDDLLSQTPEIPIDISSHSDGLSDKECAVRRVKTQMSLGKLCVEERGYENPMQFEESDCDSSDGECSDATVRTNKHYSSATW
Kind of test: Selectivity interaction (KinomeScan (DiscoverX)) EUB0000595a MAP3K13. The conditions noted are these: at 10 µM.

Test [3] concerns the target Tyrosine-protein kinase JAK2 (Homo sapiens, UniProt O60674). The test can be described thus: Selectivity interaction (KinomeScan (DiscoverX)) EUB0000695a JAK2. The conditions noted are these: at 100 nM.
Test [4] concerns the target 5'-AMP-activated protein kinase catalytic subunit alpha-2 (Homo sapiens) (UniProt P54646). The test can be described thus: Selectivity interaction (KinomeScan (DiscoverX)) EUB0000607a PRKAA2. The conditions noted are these: at 10 µM.
Test [5] concerns the target T2, Aurora kinase A (Homo sapiens) (UniProt O14965).
T2 sequence (whole entry): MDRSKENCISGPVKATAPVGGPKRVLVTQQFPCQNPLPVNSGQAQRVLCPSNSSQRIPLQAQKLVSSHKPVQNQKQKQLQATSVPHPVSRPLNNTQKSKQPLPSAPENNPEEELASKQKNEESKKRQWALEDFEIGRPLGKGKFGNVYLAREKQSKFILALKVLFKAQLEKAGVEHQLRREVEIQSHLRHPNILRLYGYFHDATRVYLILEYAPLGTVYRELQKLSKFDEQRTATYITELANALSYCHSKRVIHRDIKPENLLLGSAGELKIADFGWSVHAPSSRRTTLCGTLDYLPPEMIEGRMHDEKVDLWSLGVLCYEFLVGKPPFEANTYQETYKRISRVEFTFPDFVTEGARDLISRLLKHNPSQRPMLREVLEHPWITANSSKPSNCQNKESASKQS
Kind of test: Selectivity interaction (ActivX KiNativ screen (kinase selectivity in THP-1 cell lysates)) EUB0000639a STK6. It counts as subcellular. The conditions noted are these: lysate, at 0.01 µM.

In test [6] the target is T3, Serine/threonine-protein kinase ULK3 (Homo sapiens) (UniProt Q6PHR2).
T3 sequence (whole entry): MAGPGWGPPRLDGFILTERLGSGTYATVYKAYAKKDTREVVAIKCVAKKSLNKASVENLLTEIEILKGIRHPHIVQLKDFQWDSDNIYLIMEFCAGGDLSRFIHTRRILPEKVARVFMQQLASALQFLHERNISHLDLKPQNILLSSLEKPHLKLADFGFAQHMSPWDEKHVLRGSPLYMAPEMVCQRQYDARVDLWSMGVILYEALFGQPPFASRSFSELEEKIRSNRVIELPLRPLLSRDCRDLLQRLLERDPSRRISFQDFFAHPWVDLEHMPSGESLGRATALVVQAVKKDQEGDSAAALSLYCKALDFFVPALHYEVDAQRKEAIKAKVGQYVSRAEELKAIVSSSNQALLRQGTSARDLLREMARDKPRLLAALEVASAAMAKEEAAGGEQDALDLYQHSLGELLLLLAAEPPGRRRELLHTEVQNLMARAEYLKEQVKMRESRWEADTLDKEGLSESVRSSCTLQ
The test can be described thus: Selectivity interaction (ActivX KiNativ screen (kinase selectivity in THP-1 cell lysates)) EUB0000639a ULK3. Type of test: subcellular. The conditions noted are these: lysate, at 0.2 µM.

Test [7] concerns the target Neuropeptide Y receptor type 1 (Homo sapiens, UniProt P25929). Kind of test: Selectivity interaction (Neuropeptide Y Y1 receptor binding assay, human recombinant ) EUB0000877a NPY1R.

Structures are written as SMILES.

Neuropeptide Y receptor type 1, sequence (P25929 whole entry): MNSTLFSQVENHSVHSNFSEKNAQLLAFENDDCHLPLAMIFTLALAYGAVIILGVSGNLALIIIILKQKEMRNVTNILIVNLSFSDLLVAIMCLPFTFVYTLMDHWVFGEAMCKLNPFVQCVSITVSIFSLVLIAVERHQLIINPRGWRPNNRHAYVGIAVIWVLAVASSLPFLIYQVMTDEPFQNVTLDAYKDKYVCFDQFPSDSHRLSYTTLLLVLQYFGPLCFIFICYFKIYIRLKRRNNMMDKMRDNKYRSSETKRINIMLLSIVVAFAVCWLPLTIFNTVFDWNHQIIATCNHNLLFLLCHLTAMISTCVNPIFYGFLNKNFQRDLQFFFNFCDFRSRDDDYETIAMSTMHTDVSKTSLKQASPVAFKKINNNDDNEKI
5'-AMP-activated protein kinase catalytic subunit alpha-2 (Homo sapiens), sequence (P54646 whole entry, looked up): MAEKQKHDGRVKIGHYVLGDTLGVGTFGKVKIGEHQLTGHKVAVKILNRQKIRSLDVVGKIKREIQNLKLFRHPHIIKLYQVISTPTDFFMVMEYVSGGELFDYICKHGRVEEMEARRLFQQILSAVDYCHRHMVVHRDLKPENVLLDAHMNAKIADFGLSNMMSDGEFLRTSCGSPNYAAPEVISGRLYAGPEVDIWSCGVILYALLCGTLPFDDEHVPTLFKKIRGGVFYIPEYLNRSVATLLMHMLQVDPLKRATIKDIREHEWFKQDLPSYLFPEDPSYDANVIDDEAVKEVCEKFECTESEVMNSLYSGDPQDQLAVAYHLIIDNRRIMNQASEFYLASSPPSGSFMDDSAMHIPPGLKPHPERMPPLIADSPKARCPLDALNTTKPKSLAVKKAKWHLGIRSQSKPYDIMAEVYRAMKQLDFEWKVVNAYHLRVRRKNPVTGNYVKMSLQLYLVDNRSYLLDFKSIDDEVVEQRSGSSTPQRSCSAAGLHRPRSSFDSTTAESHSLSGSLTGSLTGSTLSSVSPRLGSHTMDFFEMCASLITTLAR
Tyrosine-protein kinase JAK2, sequence (O60674 whole entry): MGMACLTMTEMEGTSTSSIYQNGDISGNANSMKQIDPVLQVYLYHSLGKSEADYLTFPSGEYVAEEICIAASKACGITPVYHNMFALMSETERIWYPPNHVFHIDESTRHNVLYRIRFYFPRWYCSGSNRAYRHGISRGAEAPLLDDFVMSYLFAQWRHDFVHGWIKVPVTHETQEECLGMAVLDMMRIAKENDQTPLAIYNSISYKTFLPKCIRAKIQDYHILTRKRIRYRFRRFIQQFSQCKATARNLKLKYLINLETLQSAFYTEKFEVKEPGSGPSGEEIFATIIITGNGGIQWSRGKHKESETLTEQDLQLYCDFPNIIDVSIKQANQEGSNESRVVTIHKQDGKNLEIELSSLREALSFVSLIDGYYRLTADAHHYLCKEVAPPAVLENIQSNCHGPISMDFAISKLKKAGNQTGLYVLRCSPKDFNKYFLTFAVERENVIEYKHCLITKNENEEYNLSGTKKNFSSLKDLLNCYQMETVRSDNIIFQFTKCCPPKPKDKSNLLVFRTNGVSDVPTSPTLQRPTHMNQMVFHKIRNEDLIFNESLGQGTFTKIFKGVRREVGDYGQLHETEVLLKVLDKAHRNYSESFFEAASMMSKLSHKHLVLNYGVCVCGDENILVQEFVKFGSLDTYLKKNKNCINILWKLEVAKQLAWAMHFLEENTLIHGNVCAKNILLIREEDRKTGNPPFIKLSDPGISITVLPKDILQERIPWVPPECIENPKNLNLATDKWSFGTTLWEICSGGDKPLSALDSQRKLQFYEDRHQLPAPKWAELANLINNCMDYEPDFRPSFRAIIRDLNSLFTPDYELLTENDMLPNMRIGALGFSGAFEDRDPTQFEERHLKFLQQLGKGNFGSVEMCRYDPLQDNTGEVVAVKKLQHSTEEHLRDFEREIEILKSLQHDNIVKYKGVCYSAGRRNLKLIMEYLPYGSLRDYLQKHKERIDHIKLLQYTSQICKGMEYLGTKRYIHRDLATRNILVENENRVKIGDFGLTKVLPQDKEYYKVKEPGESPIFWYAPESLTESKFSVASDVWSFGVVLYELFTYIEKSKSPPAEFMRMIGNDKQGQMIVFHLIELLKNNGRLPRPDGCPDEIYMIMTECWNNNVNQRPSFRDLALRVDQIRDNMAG

As to `Cn1cc(-n2cnc3c(NCc4nc5cc(Cl)c(Cl)cc5[nH]4)nc(N4CCOCC4)nc32)cn1`, the % of control in test [1] amounted to 3.2%.

Regarding `COCC(=O)NC/C=C/c1ccc2ncnc(Nc3ccc(Oc4ccc(C)nc4)c(C)c3)c2c1` [CP-724714], in test [2], the % of control was 80%.

Regarding `Cc1cc(F)c(C(=O)Nc2cccc(-c3nncn3C(C)C)n2)cc1-n1cnc(C2CC2)c1`, in test [3], the % of control amounted to 85%.

Turning to `CNC(=O)Nc1ccc(-c2nc(N3CC4CCC(C3)O4)c3cnn(C4CCC5(CC4)OCCO5)c3n2)cc1`, the % of control in test [4] was 93%.

As for `CC[C@@H]1[C@H](F)C(=O)N[C@@H]1COc1nccc2cc(C(N)=O)c(OC)cc12` [ZIMLOVISERTIB], the % of inhibition was 4.9% in test [5] and -8.1% in test [6].

Take `CCC(=O)N1CC[C@H](Nc2ncnc3c2CN(c2cnc(OC)c(C(F)(F)F)c2)CC3)C1` [LENIOLISIB]: the IC50 in test [7] is above 30 µM.
